Legend:
[1] = test system: Zucker Diabetic Fatty rats; experiment: Effect of repeated administration of test compound on HbA1c in ZDF rats; type: in vivo, rat; details: 1 mg/kg orally once daily, mean ± standard deviation (n = 10)
Protocol: Zucker Diabetic Fatty rats (male, 7-week-old, CHARLES RIVER LABORATORIES JAPAN INC.), an animal model for type 2 diabetes, given a purified diet (5.9% fat diet, Oriental Yeast Co., Ltd.) were allocated to the vehicle group and the test compound groups so that no bias occurred in the plasma glucose and insulin levels, HbA1c levels and body weights. Repeated oral doses of the test compound (1 mg/kg/5 mL) were administered to the rats once daily at 3 hr before the dark period. A 0.5% aqueous methylcellulose solution was orally administered in the same manner to the rats of the vehicle group. On day 14 or 21 of administration, blood samples were collected from the tail vein and HbA1c level (%) was measured. Statistical analysis was performed by Dunnett's test. Values of p<0.05 were considered statistically significant.

[2] = target: T1, human PDHK1 (hPDHK1) (Homo sapiens, UniProt Q15118); experiment: Inhibitory action of PDHK1 activity in vitro (residual PDH activity after kinase reaction); type: biochemical
T1 construct: made in house; host or cells: Escherichia coli BL21(DE3), pET17b
T1 sequence (Q15118 29-436): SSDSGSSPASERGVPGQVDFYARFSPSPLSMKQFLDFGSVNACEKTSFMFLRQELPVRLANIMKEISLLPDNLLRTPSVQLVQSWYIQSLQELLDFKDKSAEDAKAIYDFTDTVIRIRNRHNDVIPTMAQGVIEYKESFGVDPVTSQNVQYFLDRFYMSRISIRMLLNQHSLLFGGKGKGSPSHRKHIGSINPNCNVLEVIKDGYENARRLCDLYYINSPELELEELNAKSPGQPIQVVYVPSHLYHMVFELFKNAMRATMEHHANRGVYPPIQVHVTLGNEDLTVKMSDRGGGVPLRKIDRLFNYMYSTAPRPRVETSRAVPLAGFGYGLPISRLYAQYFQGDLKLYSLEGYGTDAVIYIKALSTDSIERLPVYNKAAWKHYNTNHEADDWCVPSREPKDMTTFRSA
Protocol: The inhibitory action of PDHK activity was assessed indirectly by measuring the residual PDH activity after kinase reaction in the presence of a test compound.
In the case of human PDHK1 (hPDHK1, Genbank Accession No. L42450.1), a 1.3 kbp fragment encoding this protein was isolated from human liver cDNA by polymerase chain reaction (PCR). Modified hPDHK1 cDNA wherein FLAG-Tag sequence was added to the N terminus was prepared by PCR and cloned into a vector (pET17b-Novagen). The recombinant construct was transformed into Escherichia coli (DH5α-TOYOBO). The recombinant clones were identified, and plasmid DNA was isolated and subjected to the DNA sequence analysis. One clone which had the expected nucleic acid sequence was selected for expression work. […]
Then, 10 μL of substrates (5 mmol/L sodium pyruvate, 5 mmol/L Coenzyme A, 12 mmol/L NAD, 5 mmol/L thiamin pyrophosphate, diluted with buffer) were added. The mixture was incubated at room temperature for 90 min, and the residual PDH activity was measured.
The absorbance at 340 nm before and after PDH reaction was measured using a microplate reader to detect NADH produced by the PDH reaction. The hPDHK1 inhibition rate (%) of the test compound was calculated from the formula [{(PDH activity of the test compound−PDH activity of control)/PDH activity of blank−PDH activity of control)}× 100].

IC50 [2] [nM] | SMILES | HbAlc (%) ([1]; day 14 of administration) | HbAlc (%) ([1]; day 21 of administration)
34 | CC(C)(O)COc1cc(-c2cnn(CC(C)(C)O)c2)c2c(c1)[C@@](O)(C(F)(F)F)c1ccccc1-2 [compound (2), (9R)-2-(2-hydroxy-2-methylpropoxy)-4-[1-(2-hydroxy-2-methylpropyl)-1H-pyrazol-4-yl]-9-(trifluoromethyl)-9H-fluoren-9-ol] | 3.5 ± 0.1 | 
28 | C[C@H](O)COc1cc(-c2cnn(CC(C)(C)O)c2)c2c(c1)[C@@](O)(C(F)(F)F)c1ccccc1-2 [compound (1), (9R)-4-[1-(2-hydroxy-2-methylpropyl)-1H-pyrazol-4-yl]-2-((2S)-2-hydroxypropoxy)-9-(trifluoromethyl)-9H-fluoren-9-ol] |  | 3.6 ± 0.3
